# Key:
# PGE2 production = PGE2 production in cells by ELISA; type: cell-based, human; details: DU145 and UM-SCC-22B cells, 12 h; PMA 100 nM, NS398, indomethacin, PD98059 each 10 μM
# Description: Cells were plated in 48-well culture dishes and treated or without PMA (100 nM), NS398 (10 μM), indomethacin (10 μM) or PD98059 (10 μM) for 12 h. Cells were transferred to 200 μl PBS for the last 30 min. Samples were then collected and subjected to quantitative analysis of PGE2 by ELISA. The results are shown as mean±SD of results from three representative studies.
# MDM2 promoter = assay: Chromatin immunoprecipitation (ChIP) of PGHS-2 binding to the MDM2 promoter; type: cell-based, human; details: 12 h, PDTC 100 μM, PD98059 10 μM
# Description: (§1) A: ChIP was performed with PGHS-2 antibody, using UM-SCC-22B (22B) cells constitutively expressing PGHS-2, and in the absence (Con) or presence of PMA (100 nM), PDTC (100 μM) or PD98059 (PD, 10 μM) for 12 h. Input and immunoprecipitated (IP) DNA was amplified by using primers for MDM2, PGHS-2 promoter and PGHS-2 ORF, and the amplified DNAs were then separated by electrophoresis and scanned with the VersaDOC™ Imaging System.
# (§2) In ChIP experiments in prostate cancer cells, using monoclonal anti-PGHS-2, we compared the amount of immunoprecipitable PGHS-2 promoter sequence with the amount of input DNA for each sample; a PGHS-2 ORF primer served as a negative control. […] PGHS-2 also bound to the promoter region of MDM2.
# Chromatin immunoprecipitation was performed as described by Luo et al. (1998) and Braunstein et al. (1996). Aliquots of cells (6 ×10^6) in monolayers were treated with 1% formaldehyde for 15 min at room temperature to effect crosslinking. Monolayers were then washed twice with PBS. […] Cell lysates were sonicated to yield chromatin fragments of approximately 600 bp, as assessed by agarose gel electrophoresis. […] Relative levels of DNA were determined with QuantifyOne software (Bio-Rad Laboratories, Inc., Hercules, Calif.).
# human PGHS-2 promoter = assay: PGHS-2 promoter (-831/+123) luciferase reporter assay; type: cell-based; details: UM-SCC-22B cells, 12 h; PMA 100 nM, PD98059 10 μM, PDTC 100 μM, SB203580 10 μM
# Description: UM-SCC-22B cells were transfected with the −831/+123 PGHS-2 promoter constructs fused to a luciferase reporter or the luciferase reporter with the SV 40 promoter (pGL2 promoter).
# Aliquots of cells were treated with PMA (100 mM), PD98059 (10 μM), PDTC (100 μM), or SB203580 (10 μM) for 12 h. Cultures were co-transfected with β-galactosidase reporter plasmids, and luciferase activity, corrected for β-galactosidase activity, measured and expressed as the mean±SD of triplicate culture determinations from three experiments.
# To assess PGHS-2 promoter activity in UM-SCC-22B cells, the proximal −831/+123 base pairs of the human PGHS-2 promoter were fused to a luciferase reporter (pGHS-2 LUC) (Cao et al., 1999). This PGHS-2 reporter or SV40 LUC (pGL2 promoter) were transfected into near confluent UM-SCC-22B tumor cells.
# PGHS-2 promoter = assay: Chromatin immunoprecipitation (ChIP) of PGHS-2 binding to the PGHS-2 promoter; type: cell-based, human; details: 12 h, PMA 100 nM, PDTC 100 μM, PD98059 10 μM
# Description: as §1, §2
# Chromatin immunoprecipitation was performed as described by Luo et al. (1998) and Braunstein et al. (1996). Aliquots of cells (6 ×10^6) in monolayers were treated with 1% formaldehyde for 15 min at room temperature to effect crosslinking. Monolayers were then washed twice with PBS. Extracts were prepared by scraping cells in 1 ml of buffer (150 mM NaCl, 1% NP-40, 0.5% DOC, 0.1% SDS, 50 mM Tris [pH 8.0], 5 mM EDTA) that contained the protease inhibitors leupeptin (10 µg/ml) and pepstatin A (10 µg/ml), phosphatase inhibitors (50 mM NaF and 0.2 mM sodium orthovanadate) and the deacetylase inhibitor, trichostatin A, 5 µM (Calbiochem, San Diego, Calif.). Cell lysates were sonicated to yield chromatin fragments of approximately 600 bp, as assessed by agarose gel electrophoresis. Immunoprecipitation was carried out with anti-p53 (Santa Cruz, Santa Cruz, Calif.), anti-phosphoSer392-p53 (Cell Signaling, Beverly, Mass.), or anti-acetylated p53 (Upstate Biotechnology, Lake Placid, N.Y.). For studies of the PGHS-2 promoter, anti-PGHS-2 (Cayman) was used. […] Relative levels of DNA were determined with QuantifyOne software (Bio-Rad Laboratories, Inc., Hercules, Calif.).
# [1] = tested on: PGHS-2 protein expression; assay: PGHS-2 protein by immunoblotting of nuclear/cytosol proteins; type: cell-based, human; details: 12 h, PMA 100 nM; for PGHS-2 protein / PGHS-2 expression: confluent UM-SCC-22B cells, PD98059 10 μM, SB203580 10 μM, PDTC 100 μM
# Description: A: Effects of PKC activation or signaling pathway inhibitors on PGHS-2 expression. UM-SCC 22B cells were allowed to grow to confluence in 10 cm culture dishes, and then received either control medium (lane 1) or medium containing PMA (lane 2, 100 nM), PD98059 (PD, lane 3, 10 μM), SB203580 (SB, lane 4, 10 μM) or PDTC (lane 5, 100 μM) for 16 h. Cell monolayers were harvested and 40 μg nuclear protein were subjected to immunoblotting with anti-human PGHS-2 (upper panel) or anti-pMAPK (pERK1/2, lower panel). […] Results shown are the means±SD from three similar experiments.
# Fractionation of cells in a microfuge and preparation of nucleoproteins was by a previously reported method (Lin et al., 2002). Nuclear extracts were prepared by resuspension of the crude nuclear fraction in high salt buffer (420 mN NaCl, 20% glycerol) at 4° C. with rocking for 1 h. The supernatants were then collected after subsequent centrifugation at 4° C. and 13,000 rpm for 10 min.
# [2] = tested on: PGHS-2 / MDM2 association; assay: Co-immunoprecipitation of nuclear PGHS-2 with MDM2; type: cell-based, human; details: UM-SCC-22B cells, PMA 100 nM, 12 h
# Description: (§3) Confluent UM-SCC-22B (22B) cells were treated with PMA, 100 nM, or solvent alone for 12 h. Cell nuclei were prepared (Lin et al., 1999) and immunoprecipitated with antibody to PGHS-2. Immunoprecipitated proteins were separated by gel electrophoresis and immunoblotted with antibody to c-Fos, MDM2 or p300. Shown are representative immunoblots from 3 similar experiments. Co-localization of c-Fos with PGHS-2 is seen in nuclei of UM-SCC-22B cells.
# (§4) The techniques used were those previously described by our laboratory (Lin et al., 1999). In brief, nucleoproteins were separated on discontinuous SDS-PAGE (9% gels) and then transferred by electroblotting to Immobilon membranes (Millipore, Bedford, Mass.). After blocking with 5% milk in Tris-buffered saline containing 0.1% Tween, the membranes were incubated with various antibodies overnight. Secondary antibodies were either goat anti-rabbit IgG (1:1000) or rabbit anti-mouse IgG (1:1000) (Dako, Carpenteria, Calif.), depending upon the origin of the primary antibody. Immunoreactive proteins were detected by chemiluminescence.
# [3] = tested on: PGHS-1 protein expression; assay: PGHS-1 protein by immunoblotting; type: cell-based, human; details: PMA 100 nM, 12 h; cancer cell lines
# Description: FIG. 2. Expression of PGHS-2 in ECV 304, DU145 and UM-SCC-22B (22B) cells A: Constitutive expression of PGHS-2 protein in ECV 304, DU145 and UM-SCC-22B cells. Cells were grown to confluence in 10 cm dishes. Monolayers were treated with or without PMA (100 nM) for 12 h; nuclear proteins were then harvested and subjected to immunoblotting with antihuman PGHS-2 (panel 1) or -PGHS-1 (panel 2).
# as §4
# [4] = tested on: PGHS-2 / c-Fos association; assay: Co-immunoprecipitation of nuclear PGHS-2 with c-Fos; type: cell-based, human; details: UM-SCC-22B cells, PMA 100 nM, 12 h
# Description: as §3, §4
# [5] = tested on: PGHS-2 / p300 association; assay: Co-immunoprecipitation of nuclear PGHS-2 with p300; type: cell-based, human; details: UM-SCC-22B cells, PMA 100 nM, 12 h
# Description: as §3, §4
# PGHS-2 mRNA = PGHS-2 mRNA levels by RT-PCR; type: cell-based, human; details: PMA 100 nM, 8 h; ECV 304, DU145 and UM-SCC-22B cells
# Description: B: PGHS-2 mRNA levels in ECV 304, DU145 and UM-SCC-22B cells. Confluent cells were treated with or without PMA (100 nM) for 8 h. Total RNA samples were harvested and subjected to RT-PCR using PGHS-2 or GAPDH primers (top and bottom panels, respectively).
binding of PGHS-2 to the MDM2 promoter (MDM2 promoter),binding of PGHS-2 to the PGHS-2 promoter (PGHS-2 promoter),Compound,PGE2 production (PGE2 production),PGHS-2 promoter activity (luciferase) (human PGHS-2 promoter),PGHS-2 protein / PGHS-2 expression [1],further results
–,–,CS(=O)(=O)Nc1ccc([N+](=O)[O-])cc1OC1CCCCC1 [NS398],decreased PGE2 production in cancer cells to basal levels,–,–,–
inhibited,inhibited,COc1cccc(-c2cc(=O)c3ccccc3o2)c1N [PD98059],decreased PGE2 production in cancer cells to basal levels,inhibited,decreased to very low levels,–
inhibited,inhibited,"S=C(S)N1CCCC1 [PDTC, pyrrolidine dithiocarbamate]",–,inhibited,minimally inhibited,–
–,–,C[S+]([O-])c1ccc(-c2nc(-c3ccncc3)c(-c3ccc(F)cc3)[nH]2)cc1 (stereo not drawn) [SB203580],–,inhibited,minimally inhibited,–
–,–,COc1ccc2c(c1)c(CC(=O)O)c(C)n2C(=O)c1ccc(Cl)cc1 [indomethacin],decreased PGE2 production in cancer cells to basal levels,–,–,–

Compound,binding of PGHS-2 to the MDM2 promoter (MDM2 promoter),binding of PGHS-2 to the PGHS-2 promoter (PGHS-2 promoter),PGE2 production (PGE2 production),PGHS-2 promoter activity (luciferase) (human PGHS-2 promoter),PGHS-2 protein / PGHS-2 expression [1],further results
"CCCCCCCCCCCCCC(=O)O[C@@H]1[C@@H](C)[C@@]2(O)[C@@H](C=C(CO)C[C@]3(O)C(=O)C(C)=C[C@@H]23)[C@@H]2C(C)(C)[C@]12OC(C)=O [PMA, phorbol-12-myristate-13-acetate]",–,minimal increases,did not significantly increase,only negligibly increased,increase,"nuclear association of PGHS-2 with MDM2 [2]: little increase; abundance of PGHS-1 [3]: no effect; nuclear association of PGHS-2 with c-Fos [4]: marked increase; nuclear association of PGHS-2 with p300 [5]: little increase; abundance of PGHS-2 mRNA (PGHS-2 mRNA): increased; cytosolic PGHS-2 [1]: increased; abundance of PGHS-2 protein in nuclei ([1]; ECV 304, DU145 and UM-SCC-22B cells): increased"

# Reference: patent US7927799B2, “Inhibitors of PGHS-2Transactivator activity” (Ordway Research Institute, priority 2005, dated 2011)
